Measured values taken from ChEMBL document CHEMBL4840379, “RIBOTACs: Small Molecules Selectively Destroy Cancer-Associated RNA” (ACS Med Chem Lett, 2021).
Calls of active or inactive are those of the source. No cut-off for these calls is given here.

Key:
[1] = tested on: A-375; assay: Antiinvasive activity in human A-375 cells assessed as decrease in pre-miR-21 overexpression induced invasion at 500 nM incubated for 24 hrs […]; format: functional, cell-based
[2] = tested on: A549; assay: Antiinvasive activity in human A549 cells assessed as decrease in pre-miR-21 overexpression induced invasion at 500 nM incubated for 24 hrs […]; format: functional, cell-based
[3] = Turnovers, ratio of RIBOTAC activity at Pre-miR-21 RNA/RNase L in human MDA-MB-231 cells assessed as decrease in pre-miR-21 level by measuring cleaved pre-miR-21 level at 500 nM incubated for 24 hrs […] to drug concentration in human MDA-MB-231 cells; format: functional
[4] = tested on: microRNA 21; assay: RIBOTAC activity at Pre-miR-21 RNA/RNase L in human MDA-MB-231 cells assessed as decrease in pre-miR-21 level by measuring cleaved pre-miR-21 level at 500 nM incubated for 24 hrs […]; format: cell-based
[5] = Drug uptake in human MDA-MB-231 cells assessed as compound level at 500 nM incubated for 24 hrs; format: ADME, cell-based; conditions: mda-mb-231, 24 h, 0.5 µM

**Q.** For `CCCN(CC(=O)N(CCC)CC(=O)N(CCC)CC(=O)N(CC(=O)NCCOCCOCCOCCOc1ccc(/C=C2\SC(Nc3ccccc3)=C(C(=O)OCC)C2=O)cc1O)Cc1cn(CCCNC(=O)CCCOc2ccc(-c3nc4ccc(-c5ccc(N6CCN(C)CC6)cc5)cc4[nH]3)cc2)nn1)C(=O)CN(Cc1cn(CCCNC(=O)CCCOc2ccc(-c3nc4cc(-c5ccc(N6CCN(C)CC6)cc5)ccc4[nH]3)cc2)nn1)C(C)=O`, which Activity [1] is on record?
**A.** The Activity was “Active”.

**Q.** And the Activity [2]?
**A.** Its Activity is “Active”.

**Q.** And the Ratio [3]?
**A.** Its Ratio is 26.

**Q.** And the Activity [4]?
**A.** The Activity was 68 pmol.

**Q.** And the Drug uptake [5]?
**A.** The Drug uptake was 2.6 pmol.
